Structures can show the parent of a compound that is named as a salt. Where a SMILES comes first, the peptide text is derived from it. [ ]: non-standard residue; d: D form. dPhe(4-Cl) = N[C@H](Cc1ccc(Cl)cc1)C(=O)O; d2Nal = N[C@H](Cc1ccc2ccccc2c1)C(=O)O; d(hCit) = NC(=O)NCCCC[C@@H](N)C(=O)O; Lys(iPr) = CC(C)NCCCC[C@H](N)C(=O)O; d3Pal = N[C@H](Cc1cccnc1)C(=O)O
How the values were obtained:
Format in all cases: in vivo, human
[1] = Phase I trial (Example 1): pharmacokinetics, total systemic exposure of Teverelix
Description: The Teverelix TFA formulations were manufactured as followed. 0.8 ml or 0.6 ml 5% mannitol were added to the relevant dosage of 60 or 45 mg of the LHRH antagonist Teverelix® trifluoroacetate, respectively. The mixture was stirred using vortex during one minute providing two dosage formulations of Teverelix TFA in a flowing milky pearly microcrystalline aqueous suspensions. The suspensions are made of microcrystals of about 10 μm length. Corresponding placebo formulations, without Teverelix TFA was also prepared
(§1) A phase I clinical trial with formulation A and B (and placebo) was conducted in order to evaluate the pharmacokinetics, pharmacodynamics, safety and tolerability of Teverelix TFA.
(§2) The formulations were each injected subcutaneous (s.c.) as follows: • A single dosage of formulation A (60 mg Teverelix TFA) administered s.c. on day 3±1 of the menstrual cycle, to 8 healthy female subjects • A single dosage of formulation A placebo was administered s.c. to on day 3±1 of the menstrual cycle, to 4 healthy female subjects • Two dosages of formulation B (45 mg Teverelix TFA) administered s.c. to 8 healthy female subjects. The first dosage on day 3±1 of the menstrual cycle and a second dosage administered on day 10±1 of the menstrual cycle, and • two dosages of formulation B placebo was administered s.c. to 4 healthy female subjects. The first dosage on day 3±1 of the […] menstrual cycle and a second dosage administered on day 10±1 of the menstrual cycle.

women = experiment: Phase I study (Example 2): bone marker CTX in serum
Description: In order to evaluate the effect of the treatment with Teverelix TFA on the bone mineral density, two biochemical bone mineral markers was measured in the subjects. Telopeptides type I collagen, cross-linked, […] (CTX) was measured in serum of the treated subjects, and deoxypyridinoline (DPD) was measured in the subject's urine.
Said bone markers were measured on the following days in the test period: 1 (pre-dose), 15, 29, 43, 57, 64
DPD is a dynamic biochemical marker of bone loss. An increase in DPD levels in an early morning urine specimen is a reliable indicator of increased bone loss. The CTX test measures for the presence and concentration of a crosslink peptide sequence of type I collagen, found, among other tissues, in bone. This specific peptide sequence relates to bone turnover because it is the portion that is cleaved by osteoclasts during bone resorption, and its serum levels are therefore proportional to osteoclastic activity at the time the blood sample is drawn.
The concentration of DPD and CTX test were carried out at MOS Pharma Services, Central Lab GmbH, Grossmoorbogen 25, 21079 Hamburg, Germany by means of highly sensitive and specific validated chemi-luminescent (CUA) and enzyme-linked immuno-sorbent (ELISA) methods. The results are shown in FIG. 7 and table 6 respectively.

healthy female subjects = experiment: Phase I trial (Example 1): progesterone, LH and FSH in serum
Description: as §1, §2

[2] = 60 mg single s.c. (Treatment Group 1)
[3] = 2 × 45 mg s.c. (Treatment Group 2)

CC(=O)N[C@H](Cc1ccc2ccccc2c1)C(=O)N[C@H](Cc1ccc(Cl)cc1)C(=O)N[C@H](Cc1cccnc1)C(=O)N[C@@H](CO)C(=O)N[C@@H](Cc1ccc(O)cc1)C(=O)N[C@H](CCCCNC(N)=O)C(=O)N[C@@H](CC(C)C)C(=O)N[C@@H](CCCCNC(C)C)C(=O)N1CCC[C@H]1C(=O)N[C@H](C)C(N)=O [Teverelix TFA, N-Ac-d-Nal^1,d-pCl-Phe^2,d-Pal^3,d-(Hci)^6,Lys(iPr)^8,d-Ala^10 trifluoroacetate] (Ac-[d2Nal][dPhe(4-Cl)][d3Pal]SY[d(hCit)]L[Lys(iPr)]P[dA]-NH2; C-terminus assumed)
AUC(0−cq), Geometric Mean [1, 2]: 1.592 µM·h
AUC(0−t), Geometric Mean [1, 2]: 1.907 µM·h
CmaxInit1, Geometric Mean [1, 2]: 10.9 nM
CmaxLate, Geometric Mean [1, 2]: 2.63 nM
AUC(0−cq), Geometric Mean [1, 3]: 2.323 µM·h
AUC(0−t), Geometric Mean [1, 3]: 2.833 µM·h
CmaxInit1, Geometric Mean [1, 3]: 6.03 nM
CmaxInit2, Geometric Mean [1, 3]: 7.03 nM
CmaxLate, Geometric Mean [1, 3]: 3.63 nM
total systemic exposure, two injections of 45 mg one week apart compared with a single 60 mg injection ([1]; s.c., healthy female subjects): approximately 1.5 fold
alteration in bone marker serum CTX during the study (women; 30 mg and 45 mg, days 1-64): no significant alteration
CTX in serum, Mean (women; 30 mg, Day 1 (pre-dose)): 16.7 ng/L
CTX in serum, Mean (women; 30 mg, Day 15): 17.1 ng/L
CTX in serum, Mean (women; 30 mg, Day 29): 17 ng/L
CTX in serum, Mean (women; 30 mg, Day 43): 16.7 ng/L
CTX in serum, Mean (women; 30 mg, Day 57): 16.5 ng/L
CTX in serum, Mean (women; 30 mg, Day 64): 16.2 ng/L
CTX in serum, Mean (women; 45 mg, Day 1 (pre-dose)): 22.6 ng/L
CTX in serum, Mean (women; 45 mg, Day 15): 22.4 ng/L
CTX in serum, Mean (women; 45 mg, Day 29): 21.6 ng/L
CTX in serum, Mean (women; 45 mg, Day 43): 22 ng/L
CTX in serum, Mean (women; 45 mg, Day 57): 19.3 ng/L
CTX in serum, Mean (women; 45 mg, Day 64): 17.3 ng/L
concentration of progesterone following dosing (healthy female subjects; FIG. 2): decreased
concentration of LH following dosing (healthy female subjects; FIG. 3): decreased
concentration of FSH following dosing (healthy female subjects; FIG. 4): decreased

Source: patent US11446351B2, “Composition for treating one or more estrogen related diseases” (LIFEARC, priority 2018, dated 2022)
